Assay results as given in patent publication US8263095B2, “Methods of use for peptides having activities of insulin like growth factor-1” (Caregen Co., Ltd., priority 2006, dated 2012).
Bridge positions count the residues as written; N and C are the ends. Ends that are not written are not given here. * marks the point of attachment. FITC = O=C1OC2(c3ccc(O)cc3Oc3cc(O)ccc32)c2ccc(NC(=S)*)cc21; βAla = NCCC(=O)O

Tested on: receptors on surface of 3T3 fibroblasts
Test: Binding of fluorescence-labeled peptide to receptors on fibroblasts
Details: 1 mg/ml, 1 hr incubation, fluorescence and optical microscopy
Experimental: 3T3 fibroblasts were cultured in 250 ml-flasks containing EMEM (Eagle's minimal essential media, Gibco, U.S.A.) supplemented with […] FBS (fetal bovine serum). After 48-hr culture, the supernatant of the medium was discarded and the remainder was washed once with PBS (phosphate buffered saline). FITC-b-Ala-CDLRRLEMYC prepared in Preparation Example 4 was dissolved in DMSO and PBS to a concentration of 1 mg/ml and incubated for 1 hr with cells cultured. After removing medium, cells were completely washed and their surface was observed under fluorescence and optical microscopes.

FITC-b-Ala-Cys-Asp-Leu-Arg-Arg-Leu-Glu-Met-Tyr-Cys ({FITC-βAla}-CDLRRLEMYC; disulfide 1-10) [FITC-labeled peptide]
binding of the FITC-labeled peptide to receptors on cell (FIG. 12): binds to receptors on surface of fibroblasts
